These results are taken from patent US20260374739A1, “SMALL MOLECULAR WEIGHT CHEMICAL COMPOUND TO ANTAGONIZE EPH-EPHRIN TETRAMERIZATION AND INHIBIT BIDIRECTIONAL SIGNALING” (THE BOARD OF REGENTS OF THE UNIVERSITY OF TEXAS SYSTEM, priority 2022, published 2026).

Molecules are shown by their SMILES. Values joined by “and” are separate entries in the source; they are usually repeats but may differ in a detail not shown here. Equal values may be shown once. “Also recorded” adds a separate entry of the source. Marks after values point to notes of the source that are not given here.

For orientation: IC50 means the concentration that gives 50% inhibition. Lower therefore signals higher potency.

Test [1] deals with T1, EphrinB2-EphB2 (Homo sapiens, UniProt P29323).
T1 construct: soluble human EphB1-His, EphB2-His, and EphB4-His ectodomains; commercially available human EphrinB1-Fc (EB1), EphrinB2-Fc (EB2), and EphrinB3-Fc (EB3) ectodomain proteins; purchased
T1 sequence (P29323 19-543 limits assumed): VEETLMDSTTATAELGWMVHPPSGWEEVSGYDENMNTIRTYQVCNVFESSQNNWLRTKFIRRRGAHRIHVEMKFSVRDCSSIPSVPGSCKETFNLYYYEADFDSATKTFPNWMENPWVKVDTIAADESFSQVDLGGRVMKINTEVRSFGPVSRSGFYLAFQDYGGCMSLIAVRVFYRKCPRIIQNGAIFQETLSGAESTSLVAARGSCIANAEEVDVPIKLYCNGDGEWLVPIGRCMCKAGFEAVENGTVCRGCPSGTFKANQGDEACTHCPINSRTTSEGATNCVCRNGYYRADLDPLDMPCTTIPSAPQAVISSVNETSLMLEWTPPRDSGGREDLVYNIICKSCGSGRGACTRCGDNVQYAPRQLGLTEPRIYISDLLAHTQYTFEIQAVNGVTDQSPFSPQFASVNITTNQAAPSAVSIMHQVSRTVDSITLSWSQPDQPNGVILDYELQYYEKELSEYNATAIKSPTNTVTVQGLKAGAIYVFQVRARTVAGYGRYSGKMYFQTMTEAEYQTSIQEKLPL
Put plainly: Octet tetramerization inhibition, immobilized human EphrinB2 binding to 50 nM soluble human EphB2. In general terms: Biolayer interferometry detects binding as a change in optical thickness at a sensor tip.

The target in another test is T2, EphrinB2-EphB4 (Homo sapiens, UniProt P54760).
T2 construct: soluble human EphB1-His, EphB2-His, and EphB4-His ectodomains; commercially available human EphrinB1-Fc (EB1), EphrinB2-Fc (EB2), and EphrinB3-Fc (EB3) ectodomain proteins; purchased
T2 sequence (P54760 16-539 limits assumed): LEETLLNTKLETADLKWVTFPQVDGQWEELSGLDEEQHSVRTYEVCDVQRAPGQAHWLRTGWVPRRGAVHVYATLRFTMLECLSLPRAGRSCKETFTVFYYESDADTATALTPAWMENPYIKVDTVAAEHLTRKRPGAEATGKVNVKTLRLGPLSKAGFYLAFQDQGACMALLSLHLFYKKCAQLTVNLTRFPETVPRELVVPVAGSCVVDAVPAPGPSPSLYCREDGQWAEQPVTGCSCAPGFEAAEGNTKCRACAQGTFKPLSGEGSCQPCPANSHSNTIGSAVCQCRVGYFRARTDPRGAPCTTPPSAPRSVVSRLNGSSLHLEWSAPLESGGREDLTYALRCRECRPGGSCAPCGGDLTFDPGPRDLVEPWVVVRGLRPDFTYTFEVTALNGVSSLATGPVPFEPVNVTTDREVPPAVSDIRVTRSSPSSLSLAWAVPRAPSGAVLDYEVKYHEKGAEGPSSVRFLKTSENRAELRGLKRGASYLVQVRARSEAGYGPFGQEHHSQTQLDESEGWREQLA
Put plainly: Octet 80 sec association/500 sec dissociation, immobilized human EphrinB2-Fc binding to soluble human EphB4-His. Conditions: for selectivity among EphrinB2-EphB1/B2/B4: 3.2 μM. On the procedure:
(§1) In another experiment, whether certain A20 analogs might have specificity for different Eph receptors was tested. An Octet RED384 system was used to obtain biophysical ON-OFF binding data (association-dissociation) for the three different human EphrinB2-EphB1, EphrinB2-EphB2, and EphrinB2-EphB4 protein-protein interactions and to assess the effect of A20 chemicals on the binding kinetics.
(§2) FIGS. 72A-72C show three example Octet sensorgram response traces for the immobilized human EphrinB2 ectodomain protein binding to soluble forms of the human EphB1, EphB2, and EphB4 ectodomain proteins, in the absence or presence of an A20 chemical (buffer conditions are always PBSTD:PBS with 0.05% Tween-20, 1% DMSO, and +/− indicated chemical). After loading EphrinB2-Fc protein to Octet AHC biosensors, washing, and obtaining stable baseline measurements in the appropriate PBSTD (either with or without indicated chemical), the sensors are placed in its buffer that also contains the indicated soluble EphB protein for the association step (0-80″), and then returned to its buffer for the dissociation step (81″-580″). In each figure (FIGS. 72A-72C), a sensorgram run using 10 μM of the 2×HCl salt form of A20-I is compared to the no compound control run to exemplify the maximum level of reduced response signal typically obtained with a potent A20 chemical.
(§3) Because the response levels during the dissociation step plateau for the EphrinB2-EphB2 and EphrinB2-EphB1 interactions by the first 80″, AUCs were also calculated for run data encompassing the first 160″ of each experiment to account for both the 80″ association data (red asterisks) and the first 80″ of dissociation data (marked by green line and asterisks).
(§4) The selectivity of another A20 analog (a 3×HCL salt form of compound BQPB4) in comparison to previously tested compound, A20-1, was tested as described in Example 27 above.
(§5) Further to the experiments listed above, a series of dose-response experiments were conducted to determine the IC50 of a selected A20 chemical (A20-1) on the kinetics of human EphrinB2 ligand ectodomain protein binding to its cognate human EphB1, EphB2, and EphB4 receptor ectodomain proteins. FIG. 74A-74C are representative sensorgrams showing the effect of 0, 0.1, 0.2, 0.4, 0.8, 1.6, and 3.2 μM, concentrations of the 2×HCl salt of A20-I along with a 10 μM max standard (also A20-1) on three different Ephrin-EphB interactions (e.g., EphB1 in FIG. 74A, EphB2 in FIG. 74B and EphB4 in FIG. 74C). […] Additional IC50 values were determined at specific timepoints, at 75″ into the association step and at 55″ into the dissociation step (135″).
(§6) All absolute and relative IC50 values are provided in the Table 6 below, where absolute are based off the full binding sensorgram traces, and relative are based off of the max control traces.
(§7) In another experiment, the % inhibition for various A20 analog chemicals against the three different EphrinB2-EphB protein interactions was determined. Specifically, the percent inhibition for immobilized human EphrinB2-Fc binding to 25 nM soluble human EphB1-His (FIG. 76A, enlarged in FIG. 76D), EphB2-His (FIG. 76B, enlarged in FIG. 76E), and EphB4-His (FIG. 76C, enlarged in FIG. 76F) with 3511-I, 8009-9255, QTM-Br, A19, A19-NO2, and IM (all at 3.2 μM) was determined.

Test [2] has as its target T1, EphrinB2-EphB2. Put plainly: Octet 80 sec association/500 sec dissociation, immobilized human EphrinB2-Fc binding to soluble human EphB2-His. The note with it: immobilized human EphrinB2, 25 nM soluble human EphB2. On the procedure:
as §1, §2, §3, §4, §5, §6, §7

The mark [3] stands for this setting: tetramerization inhibitor IC50 (relative), association step, surmountable tetramer.
Where [4] appears, read: Absolute AUC/IC50, Table A, EphrinB2-EphB2.
The mark [5] stands for this setting: Absolute Association IC50 (300 sec), Table A, EphrinB2-EphB2.
The mark [6] stands for this setting: Absolute Dissociation IC50 (450 sec), Table A, EphrinB2-EphB2.
Where [7] appears, read: Relative AUC/IC50, Table A, EphrinB2-EphB2, compound 7: association only.
Where [8] appears, read: Relative Association IC50 (300 sec), Table A, EphrinB2-EphB2.
[9] abbreviates: Relative Dissociation IC50 (450 sec), Table A, EphrinB2-EphB2.

For `O=[N+]([O-])c1ccc(N2CCN(Cc3ccc(O)c4ncccc34)CC2)cc1` [Compound 37, 5-((4-(4-nitrophenyl)piperazin-1-yl)methyl)quinolin-8-ol], the “disruption of unsurmountable tetramer” value at EphrinB2-EphB2 [1] (0.8-3.2 μM, listed as QPB-NO4) was “slight ability to disrupt the unsurmountable tetramer; also recorded: able to inhibit a small amount of the EphrinB2-EphB2 unsurmountable tetramer”. Moreover, the concentration for half-maximal inhibition (IC50) at EphrinB2-EphB2 [1] (setting [3]) is ~1.6 µM.

Regarding `Cc1ccc2c(CN3CCN(c4ccc(Br)cc4)CC3)ccc(O)c2n1` [Compound 60, 5-((4-(4-bromophenyl)piperazin-1-yl)methyl)-2-methylquinolin-8-ol], the “tetramerization inhibitor activity” value at EphrinB2-EphB2 [1] is “appears to eliminate tetramerization inhibitor activity”. In addition, the IC50 at EphrinB2-EphB2 [1] (setting [4]), at EphrinB2-EphB2 [1] (setting [5]), at EphrinB2-EphB2 [1] (setting [6]), at EphrinB2-EphB2 [1] (setting [7]), at EphrinB2-EphB2 [1] (setting [8]) and at EphrinB2-EphB2 [1] (setting [9]) was > 3.2 µM in each case.

`O=S1(=O)CCN(Cc2cc(I)c(O)c3ncccc23)CC1` [Compound 18, 4-((8-hydroxy-7-iodoquinolin-5-yl)methyl)thiomorpholine 1,1-dioxide]: at EphrinB2-EphB2 [1] (setting [3]), the IC50 is ~0.8 µM.

In the case of `Oc1ccc(CN2CCN(c3ccccc3)CC2)c2cccnc12` [Compound 22, 5-((4-phenylpiperazin-1-yl)methyl)quinolin-8-ol], the concentration for half-maximal inhibition (IC50) at EphrinB2-EphB2 [1] (setting [4]) was > 3.2 µM; at EphrinB2-EphB2 [1] (setting [5]) it was > 3.2 µM; at EphrinB2-EphB2 [1] (setting [6]) it was > 3.2 µM; on EphrinB2-EphB2 [1] (setting [8]), 3 µM; on EphrinB2-EphB2 [1] (setting [3]), ~3 µM.

Take `CC(=O)Nc1ccc(N2CCN(Cc3ccc(O)c4ncccc34)CC2)cc1` [Compound 50, N-(4-(4-((8-hydroxyquinolin-5-yl)methyl)piperazin-1-yl)phenyl)acetamide]: the half-inhibitory concentration (IC50) on EphrinB2-EphB2 [1] (setting [4]) is > 3.2 µM; at EphrinB2-EphB2 [1] (setting [5]), > 3.2 µM; at EphrinB2-EphB2 [1] (setting [6]), > 3.2 µM; at EphrinB2-EphB2 [1] (setting [8]), 2.77 µM; at EphrinB2-EphB2 [1] (setting [9]) it was 1.95 µM; on EphrinB2-EphB2 [1] (setting [3]), > 3 µM.

As to `O=C(Cc1ccccc1)Nc1ccc(N2CCN(Cc3cc(Br)c(O)c4ncccc34)CC2)cc1` [Compound 52, N-(4-(4-((7-bromo-8-hydroxyquinolin-5-yl)methyl)piperazin-1-yl)phenyl)-2-phenylacetamide], the IC50 at EphrinB2-EphB2 [1] (setting [4]) is > 3.2 µM; on EphrinB2-EphB2 [1] (setting [5]) it was > 3.2 µM; on EphrinB2-EphB2 [1] (setting [6]) it was > 3.2 µM; on EphrinB2-EphB2 [1] (setting [7]) it was > 3.2 µM; on EphrinB2-EphB2 [1] (setting [8]), 3.31 µM; on EphrinB2-EphB2 [1] (setting [9]) it was > 3.2 µM. For the same compound, on EphrinB2-EphB2 [1] (setting [3]), the IC50 is > 3 µM. Further, at EphrinB2-EphB4, the “selectivity among EphrinB2-EphB1/B2/B4” value was “less action toward EphB4 and EphB2 but high specificity for EphB1”.

Turning to `COc1ccccc1N1CCN(Cc2ccc(O)c3ncccc23)CC1` [Compound 69, 5-((4-(2-methoxyphenyl)piperazin-1-yl)methyl)quinolin-8-ol], the half-maximal inhibitory concentration (IC50) is > 3.2 µM on EphrinB2-EphB2 [1] (setting [4]); > 3.2 µM at EphrinB2-EphB2 [1] (setting [5]); > 3.2 µM on EphrinB2-EphB2 [1] (setting [6]); 2.01 µM on EphrinB2-EphB2 [1] (setting [7]); 2.19 µM on EphrinB2-EphB2 [1] (setting [8]); 1.7 µM at EphrinB2-EphB2 [1] (setting [9]). For the same compound, the “EphB2 Inhibition Percent, Inhibition of Association ONLY” value at EphrinB2-EphB2 [2] (at 3.2 μM and 80 seconds) is 3.6% and 0%. Besides, the “EphB2 Inhibition Percent, Inhibition of Association-Dissociation” value on EphrinB2-EphB2 [2] (at 3.2 μM and 580 seconds) is 19.2% and 15.5%. Further, the “selectivity among EphrinB2-EphB1/B2/B4” value at EphrinB2-EphB4 is “less action toward EphB4 and EphB2 but high specificity for EphB1”. Besides, the “EphB4 Inhibition Percent, Inhibition of Association ONLY” value on EphrinB2-EphB4 (at 3.2 μM and 80 seconds, immobilized human EphrinB2, 25 nM soluble human EphB4) was 0*/0*%. For the same compound, the “EphB4 Inhibition Percent, Inhibition of Association-Dissociation” value at EphrinB2-EphB4 (at 3.2 μM and 580 seconds, immobilized human EphrinB2, 25 nM soluble human EphB4) was 2.2% and 0%.

Regarding `COc1ccc(N2CCN(Cc3cc(Br)c(O)c4ncccc34)CC2)cc1` [Compound 73], the half-maximal inhibitory concentration (IC50) on EphrinB2-EphB2 [1] (setting [4]) is 2.29 µM; at EphrinB2-EphB2 [1] (setting [5]) it was 2.51 µM; at EphrinB2-EphB2 [1] (setting [6]) it was 1.51 µM; on EphrinB2-EphB2 [1] (setting [8]), 1.2 µM; on EphrinB2-EphB2 [1] (setting [9]) it was 1.07 µM.

For the compound `Oc1ccc(CN2CCN(c3ccc(I)cc3)CC2)c2cccnc12` [Compound 31, 5-((4-(4-iodophenyl)piperazin-1-yl)methyl)quinolin-8-ol], at EphrinB2-EphB2 [1], the “tetramerization inhibitor activity” value is on record as “appeared less potent”.

As for `Oc1ccc(CN2CCOCC2)c2cccnc12` [Compound 2, 4-((8-hydroxyquinolin-1-ium-5-yl)methyl)morpholin-4-ium chloride], the half-inhibitory concentration (IC50) was > 6.4 µM on EphrinB2-EphB2 [1] (setting [4]); > 6.4 µM at EphrinB2-EphB2 [1] (setting [5]); > 6.4 µM on EphrinB2-EphB2 [1] (setting [6]); 2.29 µM at EphrinB2-EphB2 [1] (setting [7]); 2.09 µM on EphrinB2-EphB2 [1] (setting [8]); 2.75 µM at EphrinB2-EphB2 [1] (setting [9]).
